{"source": "patent US20240216356A1", "about": "“TASTE MASKED COMPOSTIONS OF 2,4,6-TRIFLUORO-N-[6-(1-METHYL-PIPERIDINE-4-CARBONYL)-PYRIDIN-2-YL]-BENZAMIDE HEMISUCCINATE, AND ORALLY DISENTEGRATING TABLET COMPRISING THE SAME” (priority 2021, published 2024)", "key": {"[1]": {"assay": "Solubility of lasmiditan over the pH range of the oral cavity", "assay_type": "physicochemical", "experimental": "Lasmiditan is highly soluble (dissolves readily in the mouth) but extremely bitter in taste, and has other negative sensory attributes, that preclude conventional ODT development. […] The efficacious dose is from 25 to 200 mg depending on patient weight or other factors. […] Extreme bitterness, mouth numbing, and other negative sensory attributes are present and persist for 30 minutes."}, "[2]": {"conditions": "current marketed immediate release tablets; cited from earlier work"}}, "data": [{"molecule": "CN1CCC(C(=O)c2cccc(NC(=O)c3c(F)cc(F)cc3F)n2)CC1", "note": "[Lasmiditan, 2,4,6-trifluoro-N-[6-(1-methyl-piperidin-4-ylcarbonyl)-pyridin-2-yl]-benzamide]", "values": [{"measurement": "solubility", "setting": "[1]; pH 5, aqueous buffer", "value": 35, "unit": "mg/mL"}, {"measurement": "solubility", "setting": "[1]; pH 6.8, aqueous buffer", "value": 9.8, "unit": "mg/mL"}, {"measurement": "onset of action (time to symptom relief)", "setting": "[2]", "value": "about 2 hours"}]}]}
